This passage reports IC50, AC50 and EC50 results from ChEMBL document CHEMBL1201862, “PubChem BioAssay data set” (2004).

Experiment [1] has as its target T1, Tyrosine-protein phosphatase non-receptor type 7 (Homo sapiens, UniProt P35236).
T1 sequence (P35236 whole entry): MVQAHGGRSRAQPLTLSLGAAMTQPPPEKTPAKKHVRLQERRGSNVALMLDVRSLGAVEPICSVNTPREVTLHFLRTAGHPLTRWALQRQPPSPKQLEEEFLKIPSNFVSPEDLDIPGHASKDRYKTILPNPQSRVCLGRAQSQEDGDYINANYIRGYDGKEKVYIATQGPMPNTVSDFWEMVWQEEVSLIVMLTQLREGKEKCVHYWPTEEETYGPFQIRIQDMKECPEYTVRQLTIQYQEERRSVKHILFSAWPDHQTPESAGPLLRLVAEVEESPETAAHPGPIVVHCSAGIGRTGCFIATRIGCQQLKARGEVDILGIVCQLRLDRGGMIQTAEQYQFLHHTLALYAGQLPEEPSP
Format: functional.

In experiment [2] the target is Glyceraldehyde-3-phosphate dehydrogenase (Homo sapiens, UniProt P04406).
Experiment [3] deals with T2, Dual specificity protein phosphatase 6 (Rattus norvegicus, UniProt Q64346).
T2 sequence (Q64346 whole entry): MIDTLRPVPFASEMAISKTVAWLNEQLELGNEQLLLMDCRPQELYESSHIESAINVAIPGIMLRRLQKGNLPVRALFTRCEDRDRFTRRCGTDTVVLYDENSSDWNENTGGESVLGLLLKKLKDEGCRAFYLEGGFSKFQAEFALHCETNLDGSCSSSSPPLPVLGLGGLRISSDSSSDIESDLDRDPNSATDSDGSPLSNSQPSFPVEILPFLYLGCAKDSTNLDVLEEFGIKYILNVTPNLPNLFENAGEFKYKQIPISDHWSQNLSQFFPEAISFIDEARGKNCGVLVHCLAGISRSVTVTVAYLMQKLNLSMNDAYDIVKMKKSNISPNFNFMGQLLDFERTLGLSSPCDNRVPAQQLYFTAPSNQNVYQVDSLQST

For experiment [4], the target named is T2, Dual specificity protein phosphatase 6. It is filed as functional.
Experiment [5] addresses Protein Rev (Human immunodeficiency virus type 1 group M subtype B (isolate HXB2)(HIV-1), UniProt P04618). Nature of the experiment: inhibitors of Rev binding to RRE RNA, dose response, biochemical, fluorescence polarization, HIV-1 (AID 434976). Also on record: species or system Human immunodeficiency virus 1.
In experiment [6] the target is Female germline-specific tumor suppressor gld-1 (Caenorhabditis elegans, UniProt Q17339). As to the kind of experiment: inhibitors of GLD-1 binding to TGE RNA, dose response, biochemical, fluorescence polarization, C. elegans (AID 2802). (In general: Polarisation of emitted light reports the rotation of a fluorescent probe.);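 further: fluorescence polarization of labeled TGE RNA bound by purified gld-1 protein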
The target of experiment [7] is T3, Polyadenylate-binding protein 1 (Homo sapiens, UniProt P11940). Nature of the experiment: PABP1 MLLE–PAM2 interaction inhibitors, dose response, miRNA deadenylation inhibitor project, biochemical, fluorescence polarization, Cy5-PAM2 peptide, secondary (AID 602260). Format: functional. Conditions: read-out: IC50_Mean.
Experiment [8] concerns the target T3, Polyadenylate-binding protein 1. Nature of the experiment: PABP1 MLLE–PAM2 binding inhibitor potency, dose response, biochemical, fluorescence polarization, FITC-PAM2 peptide (AID 602259). It is filed as functional. The following applies: read-out: IC50_Mean.
For experiment [9], the target named is Protein Rev (Human immunodeficiency virus type 1 group M subtype B (isolate WMJ22)(HIV-1), UniProt P05866). As to the kind of experiment: HIV-1 Rev-RRE RNA binding disruptors, dose response, biochemical, protein-RNA interaction (AID 842). Details: species or system Human immunodeficiency virus 1.
In another experiment the test system is Staphylococcus aureus. As to the kind of experiment: Inhibitors of Bacterial Quorum Sensing Structure Activity Relationship (SAR) Analysis: Dose Response Assay. [Related pubchem assays: 700, 527 ]. Format: functional, organism-based.
Experiment [10] has as its target Melanin-concentrating hormone receptor 1 (Homo sapiens, UniProt Q99705). Nature of the experiment: Late-stage fluorescence-based counterscreen for antagonists of the G-protein coupled receptor 7 (GPR7): cell-based dose response assay to identify antagonists of the melanin-concentrating hormone receptor 1 (MCHR1). [Related pubchem assays (depositor defined):AID1861, AID1880, AID1952, AID2148, AID2251, AID2257, AID485339]. Format: functional.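 Further: stimulated with 30 nM MCH peptide agonist.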

Another experiment addresses Tumor necrosis factor (Homo sapiens, UniProt P01375). Nature of the experiment: TNFa-triggered NF-kB activation inhibitors, SAR follow-up, cell-based, revised (AID 2337). It is filed as functional.
The target in experiment [11] is Nucleotide-binding oligomerization domain-containing protein 1 (Homo sapiens, UniProt Q9Y239). Nature of the experiment: NOD1 signaling inhibitors, SAR follow-up, revised (AID 2333). It is filed as functional.
Experiment [12] concerns the target Nucleotide-binding oligomerization domain-containing protein 2 (Homo sapiens, UniProt Q9HC29). As to the kind of experiment: PubChem AID 2334. Format: functional.
Another experiment concerns HEK293. Nature of the experiment: cells. The following applies: Homo sapiens.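 Further: cells exposed to compound for 14 hours overnight before viability readout.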
Experiment [13] in a line: Luminescence Cell-Based Dose Retest to Confirm Inhibitors of Cancer Stem Cells. [Related pubchem assays (depositor defined):AID2717, AID2721]. It is filed as functional. The following applies: Homo sapiens.
Experiment [14] has as its target Neurotensin receptor type 1 (Homo sapiens, UniProt P30989). It is filed as functional.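 Further: Image-based confirmatory dose-response assay measuring agonist activity at NTR1; NTR1-expressing U2OS osteosarcoma cells imaged for beta-arrestin GFP spot formation; agonist potency where compounds increase beta-arrestin recruitment.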
In another experiment the test system is INS1. Nature of the experiment: beta cell apoptosis inhibitors, cytokine rescue, dose response, luminescence, retest (AID 449756).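 Further: cell death triggered by IL-1 beta plus TNF-alpha plus IFN-gamma mixture; protective hits raise ATP signal compared with cytokine alone wells.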 Format: functional, cell-based. The following applies: Rattus norvegicus.

Activity calls are given as the source filed them. Bounds are passed on as bounds.

T3 sequence (P11940 whole entry): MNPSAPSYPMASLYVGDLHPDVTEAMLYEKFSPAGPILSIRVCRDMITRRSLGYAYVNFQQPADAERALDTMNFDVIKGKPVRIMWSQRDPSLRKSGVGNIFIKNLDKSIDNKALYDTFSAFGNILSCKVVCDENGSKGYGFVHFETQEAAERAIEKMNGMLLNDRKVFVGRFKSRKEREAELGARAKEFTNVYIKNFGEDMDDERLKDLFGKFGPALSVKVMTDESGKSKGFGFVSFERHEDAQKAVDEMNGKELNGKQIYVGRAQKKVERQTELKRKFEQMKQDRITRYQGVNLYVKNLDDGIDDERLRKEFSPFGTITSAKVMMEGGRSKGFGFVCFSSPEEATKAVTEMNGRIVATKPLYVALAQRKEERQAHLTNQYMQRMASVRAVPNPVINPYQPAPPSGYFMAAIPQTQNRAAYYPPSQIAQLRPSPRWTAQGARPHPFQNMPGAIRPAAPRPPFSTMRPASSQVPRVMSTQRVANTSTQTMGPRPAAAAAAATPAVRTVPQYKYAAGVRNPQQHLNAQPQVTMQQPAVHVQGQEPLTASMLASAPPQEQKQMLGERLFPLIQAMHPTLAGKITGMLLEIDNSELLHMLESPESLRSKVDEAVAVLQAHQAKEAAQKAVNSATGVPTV
Protein Rev (Human immunodeficiency virus type 1 group M subtype B (isolate WMJ22)(HIV-1), UniProt P05866), sequence (P05866 whole entry): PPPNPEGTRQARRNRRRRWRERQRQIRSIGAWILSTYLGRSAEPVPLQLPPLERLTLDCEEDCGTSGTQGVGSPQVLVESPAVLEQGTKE
Nucleotide-binding oligomerization domain-containing protein 2, sequence (Q9HC29 whole entry, the tested form may be a part): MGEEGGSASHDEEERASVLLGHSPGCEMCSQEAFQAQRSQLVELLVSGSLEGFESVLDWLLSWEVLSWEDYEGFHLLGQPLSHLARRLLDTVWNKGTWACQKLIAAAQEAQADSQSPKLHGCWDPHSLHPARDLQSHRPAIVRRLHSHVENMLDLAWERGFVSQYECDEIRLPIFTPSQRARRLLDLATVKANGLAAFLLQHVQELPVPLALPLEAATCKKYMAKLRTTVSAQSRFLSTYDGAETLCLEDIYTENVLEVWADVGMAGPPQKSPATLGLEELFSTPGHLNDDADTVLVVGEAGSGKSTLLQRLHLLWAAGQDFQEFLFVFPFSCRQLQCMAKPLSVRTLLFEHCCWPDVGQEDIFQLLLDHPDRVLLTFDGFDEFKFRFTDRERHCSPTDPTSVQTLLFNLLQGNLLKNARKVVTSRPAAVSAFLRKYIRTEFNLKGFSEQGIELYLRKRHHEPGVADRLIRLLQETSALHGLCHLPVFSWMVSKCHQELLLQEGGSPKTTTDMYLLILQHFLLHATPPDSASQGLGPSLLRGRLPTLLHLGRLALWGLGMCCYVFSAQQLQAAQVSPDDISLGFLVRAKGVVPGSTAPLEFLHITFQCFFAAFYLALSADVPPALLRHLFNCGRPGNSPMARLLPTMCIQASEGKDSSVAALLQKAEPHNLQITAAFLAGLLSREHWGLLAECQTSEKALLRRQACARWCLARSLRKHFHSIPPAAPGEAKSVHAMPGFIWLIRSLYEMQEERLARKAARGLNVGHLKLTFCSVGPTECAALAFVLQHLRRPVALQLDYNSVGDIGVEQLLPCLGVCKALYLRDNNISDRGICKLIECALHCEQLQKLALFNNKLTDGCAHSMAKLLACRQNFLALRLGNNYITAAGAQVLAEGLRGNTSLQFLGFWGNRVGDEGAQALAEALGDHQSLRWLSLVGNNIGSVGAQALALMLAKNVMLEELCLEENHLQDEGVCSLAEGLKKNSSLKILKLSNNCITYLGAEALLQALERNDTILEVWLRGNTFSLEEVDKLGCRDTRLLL
Tumor necrosis factor, sequence (P01375 whole entry, the tested form may be a part): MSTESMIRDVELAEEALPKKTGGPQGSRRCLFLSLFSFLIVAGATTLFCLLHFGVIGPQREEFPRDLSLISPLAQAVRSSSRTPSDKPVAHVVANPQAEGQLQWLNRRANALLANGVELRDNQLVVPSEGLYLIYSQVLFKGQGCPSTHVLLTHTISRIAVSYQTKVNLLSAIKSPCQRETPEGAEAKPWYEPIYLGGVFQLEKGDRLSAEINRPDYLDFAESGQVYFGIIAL
Protein Rev (Human immunodeficiency virus type 1 group M subtype B (isolate HXB2)(HIV-1), UniProt P04618), sequence (P04618 whole entry): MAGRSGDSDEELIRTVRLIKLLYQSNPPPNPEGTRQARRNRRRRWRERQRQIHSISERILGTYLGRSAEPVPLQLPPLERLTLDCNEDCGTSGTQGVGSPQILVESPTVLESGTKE
Melanin-concentrating hormone receptor 1, sequence (Q99705 whole entry): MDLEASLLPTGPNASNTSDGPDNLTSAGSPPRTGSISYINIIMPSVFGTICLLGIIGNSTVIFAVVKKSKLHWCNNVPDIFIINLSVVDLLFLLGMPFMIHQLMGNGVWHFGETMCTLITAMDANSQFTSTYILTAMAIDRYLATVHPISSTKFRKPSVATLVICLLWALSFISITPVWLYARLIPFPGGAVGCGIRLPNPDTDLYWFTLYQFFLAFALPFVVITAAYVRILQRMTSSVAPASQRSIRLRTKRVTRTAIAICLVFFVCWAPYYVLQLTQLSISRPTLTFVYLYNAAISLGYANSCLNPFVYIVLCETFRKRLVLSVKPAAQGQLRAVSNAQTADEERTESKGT
Neurotensin receptor type 1, sequence (P30989 whole entry): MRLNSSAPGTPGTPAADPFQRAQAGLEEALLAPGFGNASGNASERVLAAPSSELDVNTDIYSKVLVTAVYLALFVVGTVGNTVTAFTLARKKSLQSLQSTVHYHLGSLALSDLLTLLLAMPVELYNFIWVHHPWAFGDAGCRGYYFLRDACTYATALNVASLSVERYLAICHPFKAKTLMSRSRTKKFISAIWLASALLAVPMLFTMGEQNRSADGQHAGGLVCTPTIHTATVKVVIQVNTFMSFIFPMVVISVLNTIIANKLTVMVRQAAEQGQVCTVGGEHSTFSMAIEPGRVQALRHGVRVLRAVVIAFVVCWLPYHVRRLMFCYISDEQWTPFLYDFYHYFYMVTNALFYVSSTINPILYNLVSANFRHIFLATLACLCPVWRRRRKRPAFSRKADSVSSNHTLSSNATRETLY
Nucleotide-binding oligomerization domain-containing protein 1, sequence (Q9Y239 whole entry, the tested form may be a part): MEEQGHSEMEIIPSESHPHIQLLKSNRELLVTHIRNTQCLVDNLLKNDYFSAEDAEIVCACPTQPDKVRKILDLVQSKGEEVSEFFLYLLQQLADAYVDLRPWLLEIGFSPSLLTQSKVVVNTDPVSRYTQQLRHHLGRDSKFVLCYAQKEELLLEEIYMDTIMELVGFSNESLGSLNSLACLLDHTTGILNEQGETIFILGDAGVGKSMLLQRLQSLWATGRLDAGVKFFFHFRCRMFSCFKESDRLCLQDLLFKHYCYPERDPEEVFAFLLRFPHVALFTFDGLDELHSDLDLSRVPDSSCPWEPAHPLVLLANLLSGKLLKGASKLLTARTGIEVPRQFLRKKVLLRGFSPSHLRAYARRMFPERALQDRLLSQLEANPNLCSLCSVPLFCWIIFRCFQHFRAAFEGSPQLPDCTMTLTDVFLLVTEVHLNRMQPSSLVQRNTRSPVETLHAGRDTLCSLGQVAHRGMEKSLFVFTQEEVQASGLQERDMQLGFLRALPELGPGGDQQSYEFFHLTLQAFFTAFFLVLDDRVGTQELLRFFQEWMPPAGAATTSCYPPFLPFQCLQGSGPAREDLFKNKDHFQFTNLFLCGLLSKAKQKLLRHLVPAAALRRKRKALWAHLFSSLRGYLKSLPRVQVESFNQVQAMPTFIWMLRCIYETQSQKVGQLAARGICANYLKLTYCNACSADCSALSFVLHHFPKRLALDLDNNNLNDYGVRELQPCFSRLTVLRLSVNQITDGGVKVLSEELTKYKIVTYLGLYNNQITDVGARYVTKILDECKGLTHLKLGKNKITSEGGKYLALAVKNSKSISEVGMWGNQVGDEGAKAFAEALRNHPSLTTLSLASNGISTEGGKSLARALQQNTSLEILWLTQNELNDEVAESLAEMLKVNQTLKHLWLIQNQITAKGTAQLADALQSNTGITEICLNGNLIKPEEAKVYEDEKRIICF
Female germline-specific tumor suppressor gld-1, sequence (Q17339 whole entry): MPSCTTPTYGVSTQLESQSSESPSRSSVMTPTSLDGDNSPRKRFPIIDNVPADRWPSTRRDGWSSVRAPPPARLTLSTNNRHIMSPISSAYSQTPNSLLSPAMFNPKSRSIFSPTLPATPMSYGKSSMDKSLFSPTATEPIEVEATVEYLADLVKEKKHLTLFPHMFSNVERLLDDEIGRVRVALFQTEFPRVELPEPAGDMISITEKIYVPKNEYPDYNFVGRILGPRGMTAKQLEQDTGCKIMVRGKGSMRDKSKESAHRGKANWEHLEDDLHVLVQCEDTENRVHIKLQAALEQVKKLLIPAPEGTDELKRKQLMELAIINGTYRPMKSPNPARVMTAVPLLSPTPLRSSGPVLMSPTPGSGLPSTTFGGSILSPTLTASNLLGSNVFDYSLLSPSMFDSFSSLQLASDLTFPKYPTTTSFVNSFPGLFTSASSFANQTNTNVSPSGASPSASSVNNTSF
Glyceraldehyde-3-phosphate dehydrogenase, sequence (P04406 whole entry): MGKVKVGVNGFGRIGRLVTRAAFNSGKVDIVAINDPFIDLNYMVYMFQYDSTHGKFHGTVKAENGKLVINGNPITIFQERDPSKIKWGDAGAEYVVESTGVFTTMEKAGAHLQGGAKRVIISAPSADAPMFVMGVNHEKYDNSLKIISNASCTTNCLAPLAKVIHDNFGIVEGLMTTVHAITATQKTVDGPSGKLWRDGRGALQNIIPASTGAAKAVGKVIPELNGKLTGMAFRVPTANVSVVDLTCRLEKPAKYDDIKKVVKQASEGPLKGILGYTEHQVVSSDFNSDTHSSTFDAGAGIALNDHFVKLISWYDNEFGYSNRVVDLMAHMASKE

For the compound `Cn1c(SCC(=O)O)nc2sc3c(c2c1=O)CCC3`, the IC50 was > 100 µM (not active) in experiment [1], > 100 µM (not active) in experiment [2], > 100 µM (inactive) in experiment [3] and > 100 µM (inactive) in [4].
For the compound `COc1ccc2nc(N3CCCCC3)c(C#N)cc2c1`, the IC50 at Protein Rev [5] was 14.8 µM (not active); in experiment [6] it was 6.28 µM (active); in [7], > 66 µM (inactive); in [8], 18.5 µM (active).
For `COc1cccc(Nc2nc(N)nc(-c3oc4ccccc4c3C)n2)c1`, the IC50 on Protein Rev [9] is > 79.4 µM (not active).
On to `CC(=O)c1cc2c(cc1NC(=O)CN1CCN(C(c3ccccc3)c3ccccc3)CC1)OCO2`, for which, in the experiment with Staphylococcus aureus, the IC50 is 1.51 µM (active).
For the compound `COc1ccc(Oc2c(Cl)cnn(-c3ccc(C(C)C)c(C)c3)c2=O)cc1`, the IC50 in experiment [10] is 2 µM (active).
Take `N#Cc1ccc(C(=O)Nc2nc3ccccc3n2Cc2ccc(Cl)cc2)cc1`: the IC50 (at Tumor necrosis factor; in experiment [11]; in [12]; in the experiment on HEK293) was > 20 µM (inactive) throughout.
`COc1cc(OC)c2cc(C(=O)N/N=C/c3cccc(OC)c3O)[nH]c2c1`: the AC50 (commonly the midpoint of the concentration-response curve, whichever way the signal moves) in experiment [13] was 3.97 µM (active); in the experiment with INS1, 3.8 µM (active). Further, the EC50 (usually the concentration giving half of the maximal effect) in [14] was 19.3 µM (active).
